Results reported in US20190276399A1, “POLYMORPH OF NINTEDANIB” (Olon S.P.A., priority 2016, published 2019).

Assay: solubility in organic solvents and in water
Format: physicochemical
Conditions: in various organic solvents and in water; compared with nintedanib ethanesulphonate hemihydrate form known from WO 2004/013099

Q: For `COC(=O)c1ccc2c(c1)NC(=O)/C2=C(\Nc1ccc(N(C)C(=O)CN2CCN(C)CC2)cc1)c1ccccc1` [methyl-(3Z)-3-{[(4-{methyl[(4-methylpiperazin-1-yl)acetyl]amino}phenyl)amino](phenyl)methylidene}-2-oxo-2,3-dihydro-1H-indole-6-carboxylate], which solubility is on record?
A: The solubility was “better solubility in various organic solvents and in water”.
